Test results as given in patent US8716324B2, “Tricyclic indeno-pyrrole derivatives as serotonin receptor modulators” (Athersys, Inc., priority 2004, dated 2014).

These compounds were tested against human 5HT2c receptor (VSV Isoform) (Homo sapiens, UniProt P28335, I156V/I160V/N158S) (assay: cell-based). Conditions: 5-HT2c EC50 (hVSV, μM).
Chain of human 5HT2c receptor (VSV Isoform) (P28335 33-458 I156V/N158S/I160V limits assumed): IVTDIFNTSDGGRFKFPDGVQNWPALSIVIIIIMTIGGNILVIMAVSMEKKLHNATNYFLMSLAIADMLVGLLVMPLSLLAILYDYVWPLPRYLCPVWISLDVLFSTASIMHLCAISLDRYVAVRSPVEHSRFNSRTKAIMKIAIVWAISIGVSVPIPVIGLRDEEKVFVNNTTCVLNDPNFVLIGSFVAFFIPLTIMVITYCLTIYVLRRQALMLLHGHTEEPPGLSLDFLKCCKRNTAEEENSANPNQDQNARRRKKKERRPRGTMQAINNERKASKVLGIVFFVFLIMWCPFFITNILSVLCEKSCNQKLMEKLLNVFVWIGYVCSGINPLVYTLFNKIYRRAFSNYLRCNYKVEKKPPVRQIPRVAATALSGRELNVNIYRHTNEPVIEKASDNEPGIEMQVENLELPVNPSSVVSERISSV
For `CC1c2cc(Cl)c(Cl)cc2C2CNCC12` (single isomer, unassigned) [26, Enantiomer 1], the EC50 was < 1 µM. `Cc1cccc2c1C(C)C1CNCC21` (stereo not drawn) [Example 16, 7-Methyl-8-methyl-1,2,3,3a,8,8a-hexahydroindeno[1,2-c]pyrrole] was tested, and the EC50 was < 1 µM. With `CC1c2cc(Cl)c(Cl)cc2C2CNCC12` (single isomer, unassigned) [26, Enantiomer 2] the EC50 was < 0.1 µM. With `CC1c2cc(Cl)c(OCc3cccc(F)c3)cc2C2CNCC12` (stereo not drawn) [Example 9, 5-(3-Fluorobenzyloxy)-6-chloro-8-methyl-1,2,3,3a,8,8a-hexahydroindeno[1,2-c]pyrrole] the EC50 was < 10 µM. In the case of `CC1c2cc(Cl)ccc2C2CNCC12` (single isomer, unassigned) [5, Enantiomer 1], the EC50 is reported as < 1 µM. For `CC1c2c(ccc(Cl)c2Cl)C2CNCC12` (single isomer, unassigned) [27, Enantiomer 1], the EC50 was < 1 µM. For `COc1ccc2c(c1)C1CNCC1C2C` (stereo not drawn) [Example 1, 5-Methoxy-8-methyl-1,2,3,3a,8,8a-hexahydroindeno[1,2-c]pyrrole], the EC50 was > 10 µM. With `CC1c2cc(Cl)c(OCc3ccccc3)cc2C2CNCC12` (stereo not drawn) [Example 7, 5-Benzyloxy-6-chloro-8-methyl-1,2,3,3a,8,8a-hexahydroindeno[1,2-c]pyrrole] the EC50 was < 10 µM. In the case of `CC1c2ccc(OCc3ccccc3)cc2C2CNCC12` (single isomer, unassigned) [43, Enantiomer 2], the EC50 is reported as < 10 µM.
